Results published in patent US20210052600A1, “THERAPEUTIC AGENTS FOR STRESS URINARY INCONTINENCE AND INCOTINENCE OF FECES” (Takeda Pharmaceutical Company Limited, priority 2017, published 2021).

What was measured:
urethral resistance = experiment: Urethral resistance (LPP) during intravesical pressure rise by electrical stimulation of rat abdominal muscle; assay type: in vivo; conditions: mean ± SEM; for LPP Post: 30 minutes after administration; for LPP Increase: Post minus Pre; for LPP Pre: before administration
Protocol: Fifty six female rats of Sprague-Dawley strain (hereinafter, referred to as “SD strain”) were used. The rats were anesthetized with urethane, and their spinal cord was transected at the T8-T9 (the eighth thoracic cord—the ninth thoracic cord) level for the elimination of reflex voiding. Isoflurane inhalation was added, if necessary. After opening of the abdomen, a catheter (PE-100) was inserted into the bladder. In order to secure reduced urethral resistance, unilateral nerve to iliococcygeus and pubococcygeus muscles was transected. For intraduodenal administration, another catheter (PE-50) was inserted into the duodenum in advance. The abdominal muscle and skin were each closed with sutures. Two (right and left) sites of abdominal skin near the diaphragm were cut to expose abdominal muscle. The bladder was emptied through the catheter, followed by the injection of 0.2 to 0.3 mL of 0.1% Evans blue solution. Change in intravesical pressure was recorded using the bladder catheter via a pressure transducer, an electric signal amplifier, and an analog-to-digital converter. While change in intravesical pressure was recorded, the presence or absence of fluid leakage from the urethral orifice was observed under the electrical stimulation of the exposed abdominal muscle using an electrical stimulator and an isolator. […] The peak of the intravesical pressure during the stimulation of the abdominal muscle was measured, and the lowest pressure at which the fluid leakage was observed among the trials was defined as leak point pressure (hereinafter, referred to as “LPP”) for the electrical abdominal muscle stimulation method and used as an index for urethral resistance. Each drug was evaluated for its effect by comparing LPP before drug administration with that after drug administration. […] The drugs were suspended in 0.5% methylcellulose solution (MC). […] LPP was measured again 30 minutes after administration. Regarding change in LPP before and after drug administration, the differences between the mean values of the drug-treated and vehicle groups were analyzed by the one-tailed Williams' test.

[1] = test system: urethra-closing reflex response; experiment: Urethra-closing reflex response induced by intravesical pressure rise in rats; assay type: in vivo, rat; conditions: 3 mg/kg i.d., mean ± SEM
Protocol: Thirty-two female rats of SD strain were used. The rats were anesthetized with urethane. Isoflurane inhalation was added during the surgery, if necessary. Their spinal cord was transected at the T8-T9 (the eighth thoracic cord—the ninth thoracic cord) level to eliminate the reflex voiding and to inhibit the transition from the urine storage phase to the voiding phase in the voiding cycle. After opening of the abdomen, the bladder neck was ligated with suture, and a catheter (PE-100) was inserted into the bladder. The bladder catheter was connected to a pressure transducer and a saline-containing reservoir via three-way stopcocks. A microtip transducer catheter was inserted from the urethral orifice toward the bladder so that its transducer was inserted into the urethra. Local change in pressure within the urethra (intraurethral pressure) was recorded via an electric signal amplifier and an analog-to-digital converter. […] Then, the reservoir was brought back to the original position to adjust the intravesical pressure to its baseline. Such change in intraurethral pressure induced by intravesical pressure rise was repeatedly measured, and the mean value from the last 2 trials was used as a Pre value. The vehicle used was 0.5% MC. […] Thirty minutes after administration, the change in intraurethral pressure induced by intravesical pressure rise was measured again and used as a Post value. The average value before intravesical pressure rise was subtracted from the average value during intravesical pressure rise, and the subtracted value was used as urethra-closing reflex response. The ratio of the Post value to the Pre value was calculated.

[2] = Body weight of obese rats (DIO-F344) under continuous subcutaneous administration and effective plasma concentration; assay type: in vivo, rat; conditions: for Change in body weight (% change): mean ± SEM
Protocol: Forty male DIO-F344 rats bred with high fat diet (42 kcal % fat) were used. On the day before surgery, the rats were grouped on the basis of their body weight. Compound A′ and Compound B′ were each dissolved in saline. Osmotic pumps filled with the Compound A′ or Compound B′ solution were subcutaneously implanted in the rats under isoflurane anesthesia. The body weight just after surgery was used as a Pre value, and the body weight was measured every day until 14 days after surgery. Regarding the averages in the body weight on Day 14, the difference in the mean averages of the drug-treated group and the vehicle-treated group was analyzed by the one-tailed Williams' test.
The average Day 14 plasma concentration from the values of each rat measured in the morning and afternoon was used as a plasma concentration for the animal. The rate of change in body weight was calculated from the values measured just after and 14 days after osmotic pump implantation. The rate (average rate) of change of the vehicle group was subtracted from that of each drug-administered rat to plot the plasma concentration and the change in body weight. The plasma concentration at which the drug lowered the body weight by 3.8% was calculated by linear regression analysis.

urethra-closing response = experiment: MT (threshold inducing urethra-closing response) under transcranial magnetic stimulation in healthy female volunteers; assay type: in vivo, human
Protocol: The test subjects were healthy female volunteers having a body weight of at least 45 kg (average: 50.91 kg, standard deviation: 3.346) and a BMI value of 18.5 kg/m^2 to 25.0 kg/m^2 (average: 19.57 kg/m^2, standard deviation: 0.929).
A washout period of at least 7 days was provided between the treatments.
A capsule containing 40 mg of duloxetine was orally administered as duloxetine together with water. A placebo capsule containing saccharose and spherical starch granules was orally administered as a placebo for duloxetine together with water.
Specifically, during the TMS, the output of a magnetic stimulator (Magstim Rapid Square, manufactured by Magstim Co., Ltd.) was increased by 5% each time using 110 mm double cone coil, and the minimum output at which urethra-closing response occurred abruptly was determined and used as MT (%). The urethra-closing response was detected by measuring contractile responses within the urethra. The contractile response within the urethra was measured using Duet Logic G2 (manufactured by Mediwatch Ltd.) and UniTip (manufactured by Unisensor AG). MT was measured again after administration of each drug, and the rate of change (%) from the baseline was calculated. The rate of change was determined by dividing MT after administration of each drug by MT before administration.

anus-closing functions = experiment: Rat anus-closing functions (Anal LPP) measured by high speed infusion of saline into the rectum; assay type: in vivo; conditions: 5 minutes after administration, mean ± SEM
Source text: (§1) Thirty six female SD rats were used. After overnight fasting, rats were intraperitoneally administered with urethane for anesthesia, and isoflurane inhalation was further added during surgery. The abdomen was incised to expose the rectum, and a small incision of the rectum was made. A polyethylene catheter (SP61, Natsume) was inserted into the rectum through the rectum incision, and the tip of the catheter was positioned around 5 mm from the anal orifice. The other end of the catheter was connected with a pressure transducer and an infusion pump via three-way stopcocks, and the change in pressure in the rectum was measured using the pressure transducer, an electric signal amplifier, and an analog-to-digital converter. For administrating drugs, a polyethylene catheter (SP45, Natsume) was inserted into the femoral vein after exposing the vein by small incision.
After recovery period from surgery, while saline was infused at a speed of 0.1 mL/sec into the rectum using an infusion pump, change in the measured pressure—was observed. The infusion was stopped when the leakage of the saline from the anal orifice was observed. In the procedure, sudden decrease in the pressure was observed during the infusion with the leakage of saline from the anal orifice. The peak value of the pressure recorded in the rectum during the course of the procedures was defined as “an Anal LPP” in this Example. […] The Anal LPP was again measured in the same way 5 minutes after drug administration. The difference in Anal LPP from the Pre value (increased amount of Anal LPP) was calculated. Regarding change in Anal LPP before and after drug administration, the differences between the mean values of the drug-treated and vehicle-treated groups were analyzed by the one-tailed Williams' test or Student's t-test.

[3] = test system: anus-closing function increasing effect of Compound A′; experiment: Influence of SB 242084 on Compound A′-induced rat anus-closing function increasing effect (Anal LPP); assay type: in vivo; conditions: vehicle i.v. then Compound A′ 1 mg/kg i.v.; 5 minutes after Compound A′; n=9
Protocol: as §1, with “Eighteen” for “Thirty six”, “was” for “was further”
After recovery period from surgery, while saline was infused at a speed of 0.1 mL/sec into the rectum using an infusion pump, change in the measured pressure—was observed. […] The peak value of the pressure recorded in the rectum during the course of the procedures was defined as “an Anal LPP” in this Example. […] The Anal LPP was again measured in the same way 5 minutes after the administration with Compound A′. The difference in Anal LPP from the Pre value (increased amount of Anal LPP) was calculated. […]

CC(C)N(C)c1cnc2c(n1)OCCNC2.Cl [Compound A′, N-methyl-N-(1-methylethyl)-6,7,8,9-tetrahydropyrazino[2,3-f][1,4]oxazeine-3-amine]
LPP Post (urethral resistance; 0.3 mg/kg i.d.): 55.0 ± 5.4 cmH2O | LPP Increase (urethral resistance; 0.3 mg/kg i.d.): 7.8 ± 3.2 cmH2O | LPP Pre (urethral resistance; 0.3 mg/kg i.d.): 47.2 ± 5.7 cmH2O | LPP Post (urethral resistance; 1 mg/kg i.d.): 61.5 ± 4.9 cmH2O | LPP Increase (urethral resistance; 1 mg/kg i.d.): 14.2 ± 2.7 cmH2O | LPP Pre (urethral resistance; 1 mg/kg i.d.): 47.3 ± 5.0 cmH2O | LPP Post (urethral resistance; 3 mg/kg i.d.): 77.3 ± 8.1 cmH2O | LPP Increase (urethral resistance; 3 mg/kg i.d.): 29.7 ± 5.5 cmH2O | LPP Pre (urethral resistance; 3 mg/kg i.d.): 47.6 ± 3.1 cmH2O | Urethra-closing reflex response Post ([1]; 30 minutes after administration, intravesical pressure rise by 50 cm H2O): 10.40 ± 1.78 cmH2O | Urethra-closing reflex response Pre ([1]; before administration, intravesical pressure rise by 50 cm H2O): 3.58 ± 0.42 cmH2O | Urethra-closing reflex response Ratio (Post/Pr) ([1]; ratio of Post value to Pre value): 2.82 ± 0.29 | Change in body weight (% change) ([2]; 1.35 mg/animal/day s.c. osmotic pump, day 3): −1.5 ± 0.5 % change | Change in body weight (% change) ([2]; 1.35 mg/animal/day s.c. osmotic pump, day 7): −2.3 ± 0.8 % change | Change in body weight (% change) ([2]; 1.35 mg/animal/day s.c. osmotic pump, day 10): −4.5 ± 0.8 % change | Change in body weight (% change) ([2]; 1.35 mg/animal/day s.c. osmotic pump, day 14): −4.7 ± 0.8 % change | Change in body weight (% change) ([2]; 4.5 mg/animal/day s.c. osmotic pump, day 3): −0.6 ± 0.2 % change | Change in body weight (% change) ([2]; 4.5 mg/animal/day s.c. osmotic pump, day 7): −2.4 ± 0.4 % change | Change in body weight (% change) ([2]; 4.5 mg/animal/day s.c. osmotic pump, day 10): −3.9 ± 0.4 % change | Change in body weight (% change) ([2]; 4.5 mg/animal/day s.c. osmotic pump, day 14): −4.6 ± 0.6 % change | Change in body weight (% change) ([2]; 13.5 mg/animal/day s.c. osmotic pump, day 3): −2.7 ± 0.2 % change | Change in body weight (% change) ([2]; 13.5 mg/animal/day s.c. osmotic pump, day 7): −4.8 ± 0.3 % change | Change in body weight (% change) ([2]; 13.5 mg/animal/day s.c. osmotic pump, day 10): −6.9 ± 0.5 % change | Change in body weight (% change) ([2]; 13.5 mg/animal/day s.c. osmotic pump, day 14): −7.8 ± 0.5 % change | plasma concentration at which the drug lowered the body weight by 3.8% ([2]; DIO-F344 rats, day 14, vehicle-subtracted, linear regression analysis): 670 ng/mL | maximum change from baseline in MT in response to TMS (urethra-closing response; 20 mg group, at 0.5 hours post dose): −8.1% | MT of the urethra-closing response in response to TMS, Mean (urethra-closing response; 20 mg single oral dose, 0.5 hr): 58.1% | Rate of change from baseline of MT of the urethra-closing response in response to TMS, Mean (urethra-closing response; 20 mg single oral dose, 0.5 hr): −8.1% | MT of the urethra-closing response in response to TMS, Mean (urethra-closing response; 20 mg single oral dose, 2 hr): 59.0% | Rate of change from baseline of MT of the urethra-closing response in response to TMS, Mean (urethra-closing response; 20 mg single oral dose, 2 hr): −7.3% | MT of the urethra-closing response in response to TMS, Mean (urethra-closing response; 20 mg single oral dose, 6 hr): 64.2% | Rate of change from baseline of MT of the urethra-closing response in response to TMS, Mean (urethra-closing response; 20 mg single oral dose, 6 hr): −2.1% | MT of the urethra-closing response in response to TMS, Mean (urethra-closing response; 20 mg single oral dose, Predose): 66.3% | maximum change from baseline in MT in response to TMS (urethra-closing response; 90 mg group, at 3 hours post dose): −17.2% | MT of the urethra-closing response in response to TMS, Mean (urethra-closing response; 90 mg single oral dose, 0.5 hr): 55.9% | Rate of change from baseline of MT of the urethra-closing response in response to TMS, Mean (urethra-closing response; 90 mg single oral dose, 0.5 hr): −14.1% | MT of the urethra-closing response in response to TMS, Mean (urethra-closing response; 90 mg single oral dose, 2 hr): 52.8% | Rate of change from baseline of MT of the urethra-closing response in response to TMS, Mean (urethra-closing response; 90 mg single oral dose, 2 hr): −17.2% | MT of the urethra-closing response in response to TMS, Mean (urethra-closing response; 90 mg single oral dose, 6 hr): 56.3% | Rate of change from baseline of MT of the urethra-closing response in response to TMS, Mean (urethra-closing response; 90 mg single oral dose, 6 hr): −13.7% | MT of the urethra-closing response in response to TMS, Mean (urethra-closing response; 90 mg single oral dose, Predose): 70.0% | Anal LPP Increase (anus-closing functions; 0.3 mg/kg i.v.): 6.2 ± 3.1 cmH2O | Anal LPP Increase (anus-closing functions; 1 mg/kg i.v.): 30.2 ± 9.6 cmH2O | Anal LPP Increase [3]: 9.2±3.0 cmH2O
